Tests used:
[1] = test system: acyl coenzyme-A:cholesterol-O-acyl transferase (ACAT; EC 2.3.1.26); test: ACAT inhibition in rat liver microsomes incubated with radiolabelled oleoyl-CoA; format: biochemical; details: liver microsomes of rats fed 0.5%w/w cholesterol and 0.25%w/w cholic acid for 7 days; for In-vitro % Inhibition at 1»g/ml: compound at 1»g/ml; for In-vitro % Inhibition at 0.5»g/ml: compound at 0.5»g/ml
Procedure: In assays performed in-vitro, microsomes, obtained from the livers of rats fed on a diet supplemented with 0.5%w/w cholesterol and 0.25%w/w cholic acid for 7 days, were incubated with radiolabelled oleoyl-CoA in the presence of compounds according to the invention at a concentration of 0.5 or 1 »g/ml.

[2] = test system: plasma cholesterol concentrations; test: Inhibition of increases in plasma cholesterol in cholesterol-fed rats; format: in vivo; details: diet supplemented by 0.03% w/w of test compound, measured after 3 days, relative to control animals

SMILES | In-vitro % Inhibition at 1»g/ml [1] [%] | In-vitro % Inhibition at 0.5»g/ml [1] [%] | In-vivo % Inhibition [2] [%]
CC(Sc1nc(-c2ccccc2)c(-c2ccccc2)[nH]1)n1ccnc1 (racemic) [Compound 1I, (±)-2-[1-(imidazol-1-yl)ethylthio]-4,5-diphenylimidazole] | 53 |  | 
c1ccc(-c2nc(SCCCn3cncn3)[nH]c2-c2ccccc2)cc1 [Compound 1D, 2-[3-(1,2,4-triazol-1-yl)propylthio]-4,5-diphenylimidazole] | 84 |  | 
c1ccc(-c2nc(SCCCn3ccnc3-c3ccccc3)[nH]c2-c2ccccc2)cc1 [Compound 1N, 2-[3-(2-phenylimidazol-1-yl)propylthio]-4,5-diphenylimidazole] |  | 57 | 
c1ccc(-c2nc(SCCn3cncn3)[nH]c2-c2ccccc2)cc1 [Compound 1C, 2-[2-(1,2,4-triazol-1-yl)ethylthio]-4,5-diphenylimidazole] | 88 |  | 
c1ccc(-c2nc(SCCCCn3cncn3)[nH]c2-c2ccccc2)cc1 [Compound 1E, 2-[4-(1,2,4-triazol-1-yl)butylthio]-4,5-diphenylimidazole] | 86 |  | 53
Cc1nccn1CCCSc1nc(-c2ccccc2)c(-c2ccccc2)[nH]1 [Compound 1A, 2-[3-(2-methylimidazol-1-yl)propylthio]-4,5-diphenylimidazole] | 90 |  | 64
Cl.Cn1ccnc1CSc1nc(-c2ccccc2)c(-c2ccccc2)[nH]1 [Compound 1JA, 2-[(1-methylimidazol-2-yl)methylthio]-4,5-diphenylimidazole hydrochloride] | 82 |  | 23
Cn1ccnc1CSc1nc(-c2ccccc2)c(-c2ccccc2)[nH]1 [Compound 1J, 2-[(1-methylimidazol-2-yl)methylthio]-4,5-diphenylimidazole] | 85 |  | 
c1ccc(-c2nc(SCCCn3cccn3)[nH]c2-c2ccccc2)cc1 [Compound 1B, 2-[3-(pyrazol-1-yl)propylthio]-4,5-diphenylimidazole] | 83 |  | 
c1ccc(Cn2ccnc2CSc2nc(-c3ccccc3)c(-c3ccccc3)[nH]2)cc1 [Compound 1K, 2-[(1-benzylimidazol-2-yl)methylthio]-4,5-diphenylimidazole] | 57 |  | 
c1ccc(-c2nc(SCCCCCCn3cncn3)[nH]c2-c2ccccc2)cc1 [Compound 1L, 2-[6-(1,2,4-triazol-1-yl)hexylthio]-4,5-diphenylimidazole] | 91 |  | 
c1ccc(-c2nc(SCCCn3ccnc3)[nH]c2-c2ccccc2)cc1 [Compound 1H, 2-[3-(imidazol-1-yl)propylthio]-4,5-diphenylimidazole] | 80 |  | 
c1ccc(-c2nc(SCCCCCn3cncn3)[nH]c2-c2ccccc2)cc1 [Compound 1F, 2-[5-(1,2,4-triazol-1-yl)pentylthio]-4,5-diphenylimidazole] | 92 |  | 74
c1ccc(-c2nc(SCCn3ccnc3)[nH]c2-c2ccccc2)cc1 [Compound 1G] | 86 |  | 
Cc1nccn1CCCCSc1nc(-c2ccccc2)c(-c2ccccc2)[nH]1 [Compound 1M, 2-[4-(2-methylimidazol-1-yl)butylthio]-4,5-diphenylimidazole] |  | 87 | 26

Now from value to molecule, other results behind:

In-vitro % Inhibition at 1»g/ml [1] [%] | In-vitro % Inhibition at 0.5»g/ml [1] [%] | SMILES | In-vivo % Inhibition [2] [%]
71 |  | c1ccc(-c2nc(SCc3ccncc3)[nH]c2-c2ccccc2)cc1 [Compound 1U, 2-[pyrid-4-ylmethylthio]-4,5-diphenylimidazole] | 
 | 74 | c1ccc(-c2nc(SCCCCn3ncnn3)[nH]c2-c2ccccc2)cc1 [Compound 1T, 2-[4-(tetrazol-2-yl)butylthio]-4,5-diphenylimidazole] | 
 | 87 | Cc1cc(C)n(CCCSc2nc(-c3ccccc3)c(-c3ccccc3)[nH]2)n1 [Compound 1P, 2-[3-(3,5-dimethylpyrazol-1-yl)propylthio]-4,5-diphenylimidazole] | 
 | 84 | c1ccc(-c2nc(SCCCCn3cnnn3)[nH]c2-c2ccccc2)cc1 [Compound 1S, 2-[4-(tetrazol-1-yl)butylthio]-4,5-diphenylimidazole] | 41
88 |  | c1ccc(-c2nc(SCCCn3cnnn3)[nH]c2-c2ccccc2)cc1 [Compound 1Q, 2-[3-(tetrazol-1-yl)propylthio]-4,5-diphenylimidazole] | 
 | 82 | Cc1ncc([N+](=O)[O-])n1CCSc1nc(-c2ccccc2)c(-c2ccccc2)[nH]1 [Compound 1O, 2-[2-(2-methyl-5-nitroimidazol-1-yl)ethylthio]-4,5-diphenylimidazole] | 
80 |  | c1ccc(-c2nc(SCCCn3ncnn3)[nH]c2-c2ccccc2)cc1 [Compound 1R, 2-[3-(tetrazol-2-yl)propylthio]-4,5-diphenylimidazole] | 

— EP0510036B1, “2-SUBSTITUTED 4,5-DIPHENYL-IMIDAZOLES” (RHONE-POULENC RORER S.A., priority 1990, dated 1991)
